Reference: PMC6946680, “Modulation of brain cation-Cl^− cotransport via the SPAK kinase inhibitor ZT-1a” (Nature Communications, 2020)
Values joined by “and” are separate entries in the source; they are usually repeats but may differ in a detail not shown here. Equal entries are not always repeated.

What was measured:
[1] = system: regional cerebral blood flow; experiment: Regional cerebral blood flow by laser speckle contrast imaging after tMCAO; assay type: in vivo, mouse; settings: single mice
Procedure: Regional cerebral blood flow was measured using a two-dimensional laser speckle contrast analysis system (PeriCam PSI High Resolution with PIMSoft, Perimed)[65]. Isoflurane-anesthetized mice were head-fixed using stereotaxic equipment during imaging. The skin was retracted to expose the intact skull. Images were taken at 19 frames/second with averaging. Average signal intensity was taken from fixed-size (0.5-mm^2) regions of interest drawn over the parietal bone plate on the ipsi (IL)- and contralateral (CL) sides. Percent perfusion values were taken in comparison with the mean values of the pre-ischemic ipsilateral side. Five consecutive images at each time period per animal were averaged for analysis. […]
cerebral blood flow (rCBF) in ischemic mice. a and d Representative two-dimensional laser speckle contrast images of rCBF. Vehicle (DMSO), ZT-1a (A, 2.5 mg/kg), or Closantel (D, 1.25 mg/kg, i.p.) was administered i.p. at 3 hr and again at 8 hr post-reperfusion after MCAO. Pseudocolor scale bar indicates relative signal intensity. b and e No changes of rCBF were detected in the non-ischemic […]
contralateral (CL) hemispheres of vehicle-control or ZT-1a-treated (b) or Closantel-treated mice (e).
Data are mean ± SD, n = 3. c and f Similar reductions and recoveries of rCBF in the ischemic ipsilateral hemispheres (IL) were detected in the ZT-1a-treated (c) or Closantel-treated ischemic mice (f), and neither differed from vehicle-injected mice. Data are mean ± SEM, n = 3.

[2] = system: NKCC1 pThr203/207/212; experiment: Pharmacodynamic study, NKCC1 phosphorylation in brain of naive mice; assay type: in vivo, mouse
Procedure: (§1) To define ZT-1a efficacy in naive mice in vivo, we examined phosphorylation of SPAK, NKCC1, and NCC in kidney, and phosphorylation of SPAK, NKCC1, and KCC3 in brain, after intraperitoneal (i.p.) administration of either ZT-1a (10, 30, 50, and 100 mg/kg) or Closantel (50 mg/kg as a reference). […]
(§2) 5. Pharmacodynamic (PD) study
(§3) Male C57BL/6j wild-type mice (6 weeks old, Charles River Laboratories Edinburgh UK) were treated with ZT-1a (in DMSO, Sigma) by subcutaneous injection at doses of 0, 3, 10, 30, 50 and 100 mg/kg. 50 mg/kg Closantel was administered as a comparative control. Vehicle control mice were treated with an equal volume of DMSO solution. One hour after administration, mice were sacrificed by cervical dislocation, and kidney and brain tissues were rapidly dissected and snap-frozen in liquid nitrogen. Age- […]
(§4) free conditions at the University of Dundee (UK) as described in our recent study1. Animal experiments and breeding were approved by the University of Dundee ethical committee and performed under a […]
(§5) Policy on the Care, Welfare and Treatment of Animals, and regulations set by the University of Dundee and the U.K. Home Office. […]
(§6) Brain and kidney tissues were collected at 60 min post injection, and proteins subjected to immunoblot were probed with antibodies specific for phosphorylated forms of SPAK,

[3] = system: SPAK phosphorylation; experiment: Pharmacodynamic study, SPAK phosphorylation in brain of naive mice; assay type: in vivo, mouse; settings: Fig S8a (brain); 50 mg/kg
Procedure: as §1, §2, §3, §4, §5, §6

[4] = molecular target: human SPAK 452-547(C-term) with WNK peptide (RFQV) (Homo sapiens, UniProt Q9UEW8); experiment: Fluorescence polarization of SPAK–WNK peptide interaction; assay type: binding; settings: SPAK FL, Fig S5b
[5] = system: NKCC1 pThr203/207/212; experiment: Pharmacodynamic study, NKCC1 phosphorylation in kidney of naive mice; assay type: in vivo, mouse; settings: Fig S8b (kidney); 50 mg/kg
Procedure: as §1, §2, §3, §4, §5, §6

[6] = system: SPAK phosphorylation; experiment: Pharmacodynamic study, SPAK phosphorylation in kidney of naive mice; assay type: in vivo, mouse; settings: Fig S8b (kidney); 50 mg/kg
Procedure: as §1, §2, §3, §4, §5, §6

[7] = system: NKCC1 pThr203/207/212; experiment: Immunoblot of NKCC1 p-Thr203/Thr207/Thr212 in HEK-293 cells; assay type: cell-based, human; settings: single replicates
[8] = Immunoblot of KCC site 1 phosphorylation (KCC3 Thr991) in HEK-293 cells transfected with FLAG-KCC3; assay type: cell-based, human
[9] = system: NCC pThr46/50/55/60; experiment: Pharmacodynamic study, NCC phosphorylation in kidney of naive mice; assay type: in vivo, mouse; settings: Fig S8b (kidney); 50 mg/kg
Procedure: as §1, §2, §3, §4, §5, §6

[10] = system: SPAK pSer373; experiment: Immunoblot of SPAK/OSR1 p-Ser373/Ser325 in HEK-293 cells; assay type: cell-based, human; settings: single replicates
[11] = system: KCC3 pThr1048; experiment: Immunoblot of KCC site 2 phosphorylation (KCC3 Thr1048) in HEK-293 cells transfected with FLAG-KCC3; assay type: cell-based, human; settings: single replicates
[12] = system: KCC3 pThr1048; experiment: Pharmacodynamic study, KCC3 phosphorylation in brain of naive mice; assay type: in vivo, mouse
Procedure: as §1, §2, §3, §4, §5, §6

In the case of `Cc1cc(C(C#N)c2ccc(Cl)cc2)c(Cl)cc1NC(=O)c1cc(I)cc(I)c1O` (centres unmarked) [Closantel, reference compound], the “% CBF” value ([1]; Fig S10b/S10e, Pre) is reported as 100%, the “% CBF” value ([1]; Fig S10b/S10e, Reperfusion 10 min) is reported as 84% and 95% and 110% and the “% CBF” value ([1]; Fig S10b/S10e, Reperfusion 20 min) is reported as 94% and 89% and 92%. For the same compound, the “% CBF” value ([1]; Fig S10b/S10e, Reperfusion 3 h) was 108% and 97% and 120%, the “% CBF” value ([1]; Fig S10b/S10e, Reperfusion 4 h) was 105% and 104% and 110% and the “% CBF” value ([1]; Fig S10b/S10e, Reperfusion 24 h) was 119% and 83% and 102%. The “% CBF” value ([1]; Fig S10b/S10e, mcao 10 min) was 113% and 80% and 120%, the “% CBF” value ([1]; Fig S10b/S10e, mcao 20min) was 111% and 75% and 88% and the “% CBF” value ([1]; Fig S10b/S10e, mcao 50 min) was 111% and 76% and 90%. The “% CBF” value ([1]; Fig S10c/S10f, Pre) was 100%, the “% CBF” value ([1]; Fig S10c/S10f, Reperfusion 10 min) was 68% and 56% and the “% CBF” value ([1]; Fig S10c/S10f, Reperfusion 20 min) was 65% and 75% and 58%. The “% CBF” value ([1]; Fig S10c/S10f, Reperfusion 3 h) was 88% and 84% and 92%, the “% CBF” value ([1]; Fig S10c/S10f, Reperfusion 4 h) was 101% and 92% and 90% and the “% CBF” value ([1]; Fig S10c/S10f, Reperfusion 24 h) was 120% and 101% and 104%. The “% CBF” value ([1]; Fig S10c/S10f, mcao 10 min) was 34% and 30% and 35%, the “% CBF” value ([1]; Fig S10c/S10f, mcao 20min) was 37% and 32% and 33% and the “% CBF” value ([1]; Fig S10c/S10f, mcao 50 min) was 34% and 33%. The “NKCC1 phosphorylation (pThr203/207/212) in naive brains” value ([2]; 60 min after administration) was “neither drug had reduced”, the “pTh203.207.212 / NKCC1” value ([2]; Fig S8a (brain), 50 mg/kg) was 0.63 and 0.62 and 0.71 and 0.68 and the “pSer373 / SPAK” value [3] was 0.54 and 0.68 and 0.62 and 0.52. For the same compound, the “Inhibitor vs SPAK FL (fluorescence polarization signal)” value (“Inhibitor vs SPAK FL” for short) ([4]; Inhibitor 1e-5 μM) was 127.9 and 118 and 130, the “Inhibitor vs SPAK FL” value ([4]; Inhibitor 0.0001 μM) was 125.3 and 112 and 127 and the “Inhibitor vs SPAK FL” value ([4]; Inhibitor 0.001 μM) was 121.9 and 115.3 and 123. For the same compound, the “Inhibitor vs SPAK FL” value ([4]; Inhibitor 0.003 μM) was 123.1 and 116.4 and 120.4, the “Inhibitor vs SPAK FL” value ([4]; Inhibitor 0.01 μM) was 124.7 and 111.9 and 117.8 and the “Inhibitor vs SPAK FL” value ([4]; Inhibitor 0.03 μM) was 123.5 and 114.7 and 122.6. The “Inhibitor vs SPAK FL” value ([4]; Inhibitor 0.1 μM) was 126.5 and 109.5 and 116.8, the “Inhibitor vs SPAK FL” value ([4]; Inhibitor 0.3 μM) was 114.7 and 105.4 and 109.5 and the “Inhibitor vs SPAK FL” value ([4]; Inhibitor 1 μM) was 106.2 and 99.8 and 105.3. For the same compound, the “Inhibitor vs SPAK FL” value ([4]; Inhibitor 3 μM) was 104.5 and 98.4 and 100.5, the “Inhibitor vs SPAK FL” value ([4]; Inhibitor 10 μM) was 103.1 and 97.1 and 101.4 and the “Inhibitor vs SPAK FL” value ([4]; Inhibitor 100 μM) was 104.1 and 98.1 and 100.6. For the same compound, the “pTh203.207.212 / NKCC1” value [5] was 0.43 and 0.52 and 0.41 and 0.37, the “pSer373 / SPAK” value [6] was 0.54 and 0.38 and 0.32 and 0.46 and the “pNKCC1/NKCC1 band intensity ratio” value ([7]; Hypotonic low Cl, 1 uM) was 1.007 and 1.145 and 1.103 and 1.12. For the same compound, the “pNKCC1/NKCC1 band intensity ratio” value ([7]; Hypotonic low Cl, 3 uM) was 0.767 and 0.631 and 0.6563 and 0.721, the “pNKCC1/NKCC1 band intensity ratio” value ([7]; Hypotonic low Cl, 10 uM) was 0.313 and 0.28 and 0.243 and 0.21 and the “pNKCC1/NKCC1 band intensity ratio” value ([7]; Isotonic control, 1 uM) was 0.204 and 0.171 and 0.186 and 0.195. For the same compound, the “pNKCC1/NKCC1 band intensity ratio” value ([7]; Isotonic control, 3 uM) was 0.054 and 0.067 and 0.053 and 0.062, the “pNKCC1/NKCC1 band intensity ratio” value ([7]; Isotonic control, 10 uM) was 0.03 and 0.047 and 0.044 and 0.038 and the “T906/KCC2 band intensity ratio” value ([8]; Hypotonic low Cl, 1 uM, single replicates) was 0.202 and 0.217 and 0.223 and 0.249. The “T906/KCC2 band intensity ratio” value ([8]; Hypotonic low Cl, 3 uM, single replicates) was 0.23 and 0.214 and 0.223 and 0.251, the “T906/KCC2 band intensity ratio” value ([8]; Hypotonic low Cl, 10 uM, single replicates) was 0.186 and 0.19 and 0.176 and 0.21 and the “T906/KCC2 band intensity ratio” value ([8]; Isotonic control, 1 uM, single replicates (Fig 2 source data)) was 0.244 and 0.296 and 0.316 and 0.327. The “T906/KCC2 band intensity ratio” value ([8]; Isotonic control, 3 uM, single replicates) was 0.256 and 0.224 and 0.253 and 0.285, the “T906/KCC2 band intensity ratio” value ([8]; Isotonic control, 10 uM, single replicates) was 0.18 and 0.181 and 0.194 and 0.22 and the “pTh46.50.55 / NCC” value [9] was 0.81 and 1.06 and 0.69 and 0.76. The “pSPAK/SPAK band intensity ratio” value ([10]; Hypotonic low Cl, 1 uM) was 0.156 and 0.123 and 0.1673 and 0.133, the “pSPAK/SPAK band intensity ratio” value ([10]; Hypotonic low Cl, 3 uM) was 0.102 and 0.11 and 0.1063 and 0.108 and the “pSPAK/SPAK band intensity ratio” value ([10]; Hypotonic low Cl, 10 uM) was 0.032 and 0.058 and 0.043 and 0.041. The “pSPAK/SPAK band intensity ratio” value ([10]; Isotonic control, 1 uM) was 0.118 and 0.131 and 0.126 and 0.122, the “pSPAK/SPAK band intensity ratio” value ([10]; Isotonic control, 3 uM) was 0.056 and 0.061 and 0.054 and 0.063 and the “pSPAK/SPAK band intensity ratio” value ([10]; Isotonic control, 10 uM) was 0.039 and 0.027 and 0.033 and 0.031. The “T1007/KCC2 band intensity ratio” value ([11]; Hypotonic low Cl, 1 uM) was 0.34 and 0.36 and 0.343 and 0.37, the “T1007/KCC2 band intensity ratio” value ([11]; Hypotonic low Cl, 3 uM) was 0.16 and 0.144 and 0.163 and 0.152 and the “T1007/KCC2 band intensity ratio” value ([11]; Hypotonic low Cl, 10 uM) was 0.113 and 0.046 and 0.08 and 0.1. The “T1007/KCC2 band intensity ratio” value ([11]; Isotonic control, 1 uM) was 0.358 (2×) and 0.326 and 0.311, the “T1007/KCC2 band intensity ratio” value ([11]; Isotonic control, 3 uM) was 0.141 and 0.106 and 0.123 and 0.134 and the “T1007/KCC2 band intensity ratio” value ([11]; Isotonic control, 10 uM) was 0.071 and 0.062 and 0.054 and 0.067. For the same compound, the “KCC3 phosphorylation (pThr1048) in naive brains” value ([12]; 60 min after administration) was “neither drug had reduced” and the “pTh1048 / KCC3” value ([12]; Fig S8a (brain), 50 mg/kg) was 0.84 and 0.87 and 0.95 and 0.91.
